Laboratory results taken from patent US10639277B1, “Multi-functional echogenic immunoliposomes for directed stem cell delivery to atheroma” (BOARD OF REGENTS OF THE UNIVERSITY OF TEXAS SYSTEM, priority 2009, dated 2020).

How the values were obtained:
[1] = test system: canine fetal myoblasts; experiment: SDF-1 induced transwell cell migration; assay type: cell-based; conditions: 30 μM
Experimental: Cells were placed at a concentration of 5×10^4/well in the upper chamber (BD Biosciences), and the chamber was placed in a 24-well culture plate (BD Biosciences) containing culture medium and 100 nM SDF-1 for measuring the migratory capacity of myoblast cells. After 48 hours of incubation at 37° C., the medium was removed, and the insert was transferred to a second plate containing Calcein-AM solution. The plates were incubated for 90 minutes at 37° C. in a 5% CO2 incubator. The fluorescence of migrating cells was read in a fluorescence microplate reader with bottom reading capabilities at excitation/emission wavelengths of 485/530 nm. […] Apoj expression can also provide protection against apoptotic stem cell death. This finding is consistent with published results that ApoJ expression can provide some protection against apoptotic cell death. Exposure to oxidized cholesterol or oxysterol often triggers apoptosis in a variety of cells and atheroma contains abundant oxysterols such as 7-ketocholsterol. Therefore, a study was done to establish that ApoJ expression will exert protective effects against apoptotic cell death for stem cells. After incubation of vascular smooth muscle cells from the aorta of ApoJ-knockout mice or wild-type mice with 10 μg/ml 7-ketocholsterol for 24-48 the cells were examined for viability by stained with a combination of acridine orange and ethidium bromide. […]

[2] = test system: KG-293 cells; experiment: TCN-induced ApoJ expression and TNF-α induced apoptosis in KG-293 cells; assay type: cell-based, human; conditions: 10 ng/ml for 24- and 48-hours
From the text: Recent studies have shown that ApoJ can be induced by certain growth factors such as TGF-ß translocate to the nucleus participating in apoptosis regulation. To determine whether intracellular expression of ApoJ inhibits receptor-mediated apoptosis induced by cytokines, we constructed a plasmid (pkS7) with ApoJ cDNA insert lacking the sequence for the domain of protein secretion. The non-secreted, intracellular isoform of ApoJ gene mimics the intracellular isoform inducible by TGF-ß. Under regulation by a CMV promoter with TCN-responding elements, pKS7 transfection of HEK293 cells generated a stable cell line (KG-293) with ApoJ over expression. […] KG-293 cells over expressing the intracellular form of ApoJ also underwent dramatic alterations in morphology and proliferation.

Molecule | effect on SDF-1 induced migration of ApoJ-overexpressing myoblasts [1] | apoptosis in control KG-293 cells not exposed to TCN [2]
COc1cccc(-c2cc(=O)c3ccccc3o2)c1N [PD98059] | did not have any significant impact | –
TNF-α | – | marked apoptosis
